Test results reported in paper PMC5053523, “In Vitro Antibacterial Activity of Rhodanine Derivatives against Pathogenic Clinical Isolates” (PLoS ONE, 2016).
Converted amounts (≈) assume the structure as drawn. Like-named read-outs stand apart in the source and are kept apart here.

How the values were obtained:
Salmonella Typhimurium [1] = test: MIC with/without PMBN, Salmonella Typhimurium; assay type: cell-based
Experimental: (§1) The MIC of the rhodanines and control antibiotics, in the presence of a sub-inhibitory concentration of colistin or polymixin B nonapeptide (PMBN), against Gram-negative bacteria was evaluated as described before. The antibacterial activity of the rhodanines was further investigated against E. coli SM1411Δ acrAB, a strain that is deficient in the multidrug-resistant AcrAB efflux pump, as described before.

Pseudomonas aeruginosa [2] = test: MIC with/without PMBN, Pseudomonas aeruginosa; assay type: cell-based
Experimental: as §1

Escherichia coli O157:H7 [3] = test: MIC with/without sub-MIC colistin, Escherichia coli O157:H7; assay type: cell-based
Experimental: as §1

Escherichia coli Δ acrAB = test: MIC against E. coli 1411 and AcrAB efflux pump deficient E. coli SM1411Δ acrAB; assay type: cell-based
Experimental: as §1

Klebsiella pneumoniae [4] = test: MIC with/without sub-MIC colistin, Klebsiella pneumoniae; assay type: cell-based
Experimental: as §1

Klebsiella pneumoniae [5] = test: MIC with/without PMBN, Klebsiella pneumoniae; assay type: cell-based
Experimental: as §1

MRSA USA300 = test: MIC against MRSA USA300 with and without 4% human serum albumin; assay type: cell-based, Staphylococcus aureus; conditions: Staphylococcus aureus, read-out: MIC against MRSA USA300
Experimental: The minimum inhibitory concentration (MIC) and the minimum bactericidal concentration (MBC) of rhodanine compounds 1 to 7 were determined against various Gram-positive and Gram-negative pathogens (S1 Table) following the guidelines of the Clinical and Laboratory Standards Institute (CLSI)[4]. The broth microdilution technique was used, followed by subculturing on agar plates that were rhodanine—free. […] The MICs reported represent the lowest concentration of each compound necessary to inhibit bacterial growth and the MBCs represent the lowest concentration required to reduce the initial bacterial inoculum by ≥ 99.9%.
The antimicrobial activity of rhodanine compounds in the presence of 4% human serum albumin (HSA) was tested against MRSA USA300. The MICs of rhodanine compounds and control antibiotics (vancomycin and daptomycin) were tested as described in the methods above using tryptic soy broth spiked with 4% HSA. We also synthesized and tested three more compounds, ethyl ester and amide of rhodanine 2 (Rh 8 and Rh 10, respectively) and ethyl ester of rhodanine 3 (Rh 9) to determine the influence of a carboxyl group modification toward anti-MRSA activity and human serum albumin (HSA) binding.

Pseudomonas aeruginosa [6] = test: MIC with/without sub-MIC colistin, Pseudomonas aeruginosa; assay type: cell-based
Experimental: as §1

Acinetobacter baumannii [7] = test: MIC with/without PMBN, Acinetobacter baumannii; assay type: cell-based
Experimental: as §1

Escherichia coli O157:H7 [8] = test: MIC with/without PMBN, Escherichia coli O157:H7; assay type: cell-based
Experimental: as §1

Salmonella Typhimurium [9] = test: MIC with/without sub-MIC colistin, Salmonella Typhimurium; assay type: cell-based
Experimental: as §1

Acinetobacter baumannii [10] = test: MIC with/without sub-MIC colistin, Acinetobacter baumannii; assay type: cell-based
Experimental: as §1

Mycobacterium smegmatis = test: Broth microdilution MIC/MBC, Mycobacterium smegmatis; assay type: cell-based; conditions: Mycolicibacterium smegmatis, ATCC14468, M. Smegmatis ATCC 14468
[11] = Salmonella Typhimurium ATCC 700720, PMBN (+) 4 μg/mL, read-out: MIC
[12] = Salmonella enterica, ATCC 700720 / TYPHIMURIUM
[13] = Pseudomonas aeruginosa ATCC 9721, PMBN (+) 4 μg/mL, read-out: MIC
[14] = Pseudomonas aeruginosa, ATCC9721
[15] = Escherichia coli O157:H7 ATCC 35150, colistin (+) […], read-out: MIC
[16] = Escherichia coli O157:H7 ATCC 700728, colistin (+) […], read-out: MIC
[17] = E.coli 1411 SM (Δ acrAB, AcrAB efflux pump deficient)
[18] = Klebsiella pneumoniae ATCC BAA 2146, colistin (+) […]
[19] = Klebsiella pneumoniae ATCC BAA 1706, PMBN (+) 4 μg/mL
[20] = Klebsiella pneumoniae ATCC BAA 2146, PMBN (+) 4 μg/mL
[21] = Pseudomonas aeruginosa ATCC 921, colistin (+) […], read-out: MIC
[22] = Pseudomonas aeruginosa, ATCC921
[23] = Acinetobacter baumannii ATCC BAA747, PMBN (+) 4 μg/mL, read-out: MIC
[24] = Acinetobacter baumannii ATCC BAA19606, PMBN (+) 4 μg/mL, read-out: MIC
[25] = Acinetobacter baumannii, ATCCBAA747
[26] = Acinetobacter baumannii, ATCCBAA19606
[27] = Escherichia coli O157:H7 ATCC 35150, PMBN (+) 4 μg/mL, read-out: MIC
[28] = Escherichia coli O157:H7 ATCC 700728, PMBN (+) 4 μg/mL, read-out: MIC
[29] = Salmonella Typhimurium ATCC 700720, colistin (+) […], read-out: MIC
[30] = Acinetobacter baumannii ATCC BAA747, colistin (+) […], read-out: MIC
[31] = Acinetobacter baumannii ATCC BAA19606, colistin (+) […], read-out: MIC

Compound	MIC (Salmonella Typhimurium [1]; [11]) [µM]	MIC (Salmonella Typhimurium [1]; [12]) [µM]	MIC (Pseudomonas aeruginosa [2]; [13]) [µM]	MIC (Pseudomonas aeruginosa [2]; [14]) [µM]	MIC (Escherichia coli O157:H7 [3]; [15]) [µM]	MIC (Escherichia coli O157:H7 [3]; [16]) [µM]	MIC (Escherichia coli Δ acrAB; E.coli 1411) [µM]	MIC (Escherichia coli Δ acrAB; [17]) [µM]	MIC (Klebsiella pneumoniae [4]; [18]) [µM]	MIC (Klebsiella pneumoniae [4]; Klebsiella pneumoniae, BAA2146) [µM]	MIC (Klebsiella pneumoniae [5]; [19]) [µM]	MIC (Klebsiella pneumoniae [5]; [20]) [µM]	MIC (Klebsiella pneumoniae [5]; Klebsiella pneumoniae, BAA1706) [µM]	MIC (Klebsiella pneumoniae [5]; Klebsiella pneumoniae, BAA2146) [µM]	MIC (Pseudomonas aeruginosa [6]; [21]) [µM]	MIC (Pseudomonas aeruginosa [6]; [22]) [µM]	MIC (Acinetobacter baumannii [7]; [23]) [µM]	MIC (Acinetobacter baumannii [7]; [24]) [µM]	MIC (Acinetobacter baumannii [7]; [25]) [µM]	MIC (Acinetobacter baumannii [7]; [26]) [µM]	further results
CCCCCCCCCC(=O)N[C@@H](Cc1c[nH]c2ccccc12)C(=O)N[C@H](CC(N)=O)C(=O)N[C@@H](CC(=O)O)C(=O)N[C@@H]1C(=O)NCC(=O)N[C@@H](CCCN)C(=O)N[C@@H](CC(=O)O)C(=O)N[C@H](C)C(=O)N[C@@H](CC(=O)O)C(=O)NCC(=O)N[C@H](CO)C(=O)N[C@@H]([C@H](C)CC(=O)O)C(=O)N[C@@H](CC(=O)c2ccccc2N)C(=O)O[C@@H]1C [Daptomycin, reference compound]	>128	> 128	>64	> 128	>64	>64	> 64	> 64	>64	> 128	>64	>64	> 128	> 128	>64	> 128	>64	>64	> 128	> 128	MIC (Escherichia coli O157:H7 [3]; ATCC35150, Escherichia coli O157:H7 ATCC 35150, colistin (-), read-out: MIC): > 128 µM; MIC (Escherichia coli O157:H7 [3]; ATCC700728, Escherichia coli O157:H7 ATCC 700728, colistin (-), read-out: MIC): > 128 µM; MIC (MRSA USA300; 24 h, Media TSB + 4% HSA): 64 µM; MIC (MRSA USA300; Media TSB): 4 µM (≈ 6.48 µg/mL); MIC (Escherichia coli O157:H7 [8]; ATCC35150, Escherichia coli O157:H7 ATCC 35150, PMBN (-), read-out: MIC): > 256 µM; MIC (Escherichia coli O157:H7 [8]; ATCC700728, Escherichia coli O157:H7 ATCC 700728, PMBN (-), read-out: MIC): > 128 µM; MIC (Escherichia coli O157:H7 [8]; [27]): >256 µM; MIC (Escherichia coli O157:H7 [8]; [28]): >64 µM; MIC (Salmonella Typhimurium [9]; [29]): >64 µM; MIC (Salmonella Typhimurium [9]; [12]): > 128 µM; MIC (Acinetobacter baumannii [10]; [30]): >64 µM; MIC (Acinetobacter baumannii [10]; [31]): >64 µM; MIC (Acinetobacter baumannii [10]; [25]): > 128 µM; MIC (Acinetobacter baumannii [10]; [26]): > 128 µM
CC(=O)O[C@H]1C[C@@]2(C)[C@@H](C[C@@H](O)[C@H]3[C@@]4(C)CC[C@@H](O)[C@@H](C)[C@@H]4CC[C@@]32C)/C1=C(\CCC=C(C)C)C(=O)O [Fusidic acid, fusidic acid, reference compound]	64 (≈ 33.1 µg/mL)	> 128	4 (≈ 2.07 µg/mL)	> 128	≤0.5	≤0.5	> 64	4 (≈ 2.07 µg/mL)	>64	> 128	16 (≈ 8.27 µg/mL)	>64	> 128	> 128	>64	> 128	2 (≈ 1.03 µg/mL)	2 (≈ 1.03 µg/mL)	> 128	128 (≈ 66.1 µg/mL)	MIC (Escherichia coli O157:H7 [3]; Escherichia coli, ATCC35150): > 128 µM; MIC (Escherichia coli O157:H7 [3]; Escherichia coli, ATCC700728): > 128 µM; MIC (Escherichia coli O157:H7 [8]; [27]): 4 µM (≈ 2.07 µg/mL); MIC (Escherichia coli O157:H7 [8]; [28]): 32 µM (≈ 16.5 µg/mL); MIC (Escherichia coli O157:H7 [8]; Escherichia coli, ATCC35150): > 256 µM; MIC (Escherichia coli O157:H7 [8]; Escherichia coli, ATCC700728): > 128 µM; MIC (Salmonella Typhimurium [9]; [29]): 64 µM (≈ 33.1 µg/mL); MIC (Salmonella Typhimurium [9]; [12]): > 128 µM; MIC (Acinetobacter baumannii [10]; [30]): 1 µM (≈ 0.517 µg/mL); MIC (Acinetobacter baumannii [10]; [31]): ≤0.5 µM; MIC (Acinetobacter baumannii [10]; [25]): > 128 µM; MIC (Acinetobacter baumannii [10]; [26]): 128 µM (≈ 66.1 µg/mL)
CO[C@H]1/C=C/O[C@@]2(C)Oc3c(C)c(O)c4c(O)c(c(/C=N/N5CCN(C)CC5)c(O)c4c3C2=O)NC(=O)/C(C)=C\C=C\[C@H](C)[C@H](O)[C@@H](C)[C@@H](O)[C@@H](C)[C@H](OC(C)=O)[C@@H]1C [Rifampicin, rifampicin, reference compound]																					MBC (Mycobacterium smegmatis; read-out: MBC): > 64 µM; MIC (Mycobacterium smegmatis; read-out: MIC): 32 µM (≈ 26.3 µg/mL)
